The text below walks through data of paper PMC11314561, “Design and Synthesis of Novel Aminoindazole-pyrrolo[2,3-b]pyridine Inhibitors of IKKα That Selectively Perturb Cellular Non-Canonical NF-κB Signalling” (Molecules, 2024).

One series has as its system panel of 231 kinases. Put plainly: Kinome profiling, summary. It is filed as biochemical, human. To be noted: 1 μM. An excerpt:
(§1) We profiled three compounds from the series across the kinome (Table S1).
(§2) Ta b l e S1. The % inhibition of compounds 4, 5r [SU1261], and 6g [SU1349] against a
(§3) panel of kinase enzymes. We proϐiled three compounds from the series across 231
(§4) kinases. For SU1349, given its structural similarity with SU1261, we selected 98 from the
(§5) Tested kinase % inhibiƟon

For another series, the system named is MLCK(h). As to the kind of experiment: kinase panel. It is filed as biochemical, human. The conditions noted are these: 1 μM.
From the text: as §1, §2, §3, §4, §5

Series [1] concerns p100 phosphorylation (Ser866/870) in PC-3M cells. As to the kind of experiment: LTα1β2-stimulated p100 phosphorylation, Western blotting. The conditions noted are these: Homo sapiens, 1 h pre-treatment, LTα1β2 4 h. The class given is cell-based. How it is done: (§6) U2OS cells were cultured in McCoy’s 5A Modified Medium, and PC-3M-Luc-C6 prostate cancer cells were cultured in Minimum Essential Medium (MEM), each containing 10% (v/v) Foetal Calf Serum (FCS), L-glutamine ([…]), and penicillin/streptomycin (250 units/mL; 100 μg/mL) and incubated in a humidified atmosphere at 37 °C with 5% (v/v) CO2. Cells were grown to near confluence and prior to experimentation rendered quiescent by serum deprivation for 24 h.
For examination of potential effects of compound on non-canonical NF-κB signalling, cells were exposed to vehicle (DMSO; 0.03–0.05% (v/v)) or increasing concentrations of compounds (0.01–30 µM) for 1 h prior to treatment with FCS (10% (v/v); for U2OS cells) or LTα1β2 (20 ng/mL; for PC-3M cells) for 4 h. The status of p-p100 (Ser 866/870) in whole-cell extracts prepared from 12-well plates was assessed by Western blotting, as described in McKenzie et al.. […] Thereafter, p52 and RelB status in crude nuclear extracts normalised for protein amounts were assessed by Western blotting.
Each figure/panel of Western blotting data represents one of at least three separate experiments. Western blots were scanned and imaged using Adobe Photoshop 5.0.2 software and polypeptide bands were semi-quantified by scanning densitometry using the Scion Image program. […]
A general note: In western blotting, separated proteins are transferred to a membrane and probed.

Series [2] has as its system IκBα degradation in PC-3M cells. Put plainly: TNFα-stimulated IκBα degradation, Western blotting. It is filed as cell-based. To be noted: for effect on TNFα-stimulated IκBα degradation: PC-3M cells, 0.1–10 µM. Here is the method:
as §6
(§7) To examine the potential impact of compounds on canonical NF-κB signalling, cells were then exposed to vehicle (DMSO; 0.05% (v/v)) or increasing concentrations of compounds (0.01–30 µM) for 1 h prior to treatment with TNF⍺ (20 ng/mL) for 30 min. Whole-cell extracts were prepared, and the status of IκB⍺, phospho-p65 (Ser536), p65, and phospho-p105 ([…]) was also assessed by Western blotting.
Each figure/panel of Western blotting data represents one of at least three separate experiments. Western blots were scanned and imaged using Adobe Photoshop 5.0.2 software and polypeptide bands were semi-quantified by scanning densitometry using the Scion Image program. Data were normalised to fold expression/inhibition relative to ‘agonist plus vehicle’ treatment and expressed as mean ± s.e.m. […]
Figure 14 Compound 5r [SU1261] inhibits LTα1β2-stimulated p100 phosphorylation (Ser866/870) but not TNFα-stimulated IkBα degradation, phosphorylation of p65 (Ser536), nor phosphorylation of p105 (Ser932) in PC-3M prostate cancer cells. […] (0.1–10 µM) for 1 h prior to treatment with LTα1β2 (15 ng/mL) for 4 h, and phospho-p100 (Ser866/870) in whole-cell extracts was assessed by Western blotting. […] (0.1–10 µM) for 1 h prior to treatment with TNFα (10 ng/mL) for 30 min, and IkBα degradation, phospho-p65 (Ser536), phospho-p105 (Ser932), and p65 expression in whole-cell extracts were assessed by Western blotting. […] Normalised data (n = 3) from semi-quantitative scanning densitometry were plotted relative to ‘agonist plus vehicle’ (LTα1β2 plus DMSO), and IC50 values were established by curve fitting using the Hill equation (see Figure S1D).

In series [3] the test system is p65 (Ser536) phosphorylation in PC-3M cells. Put plainly: TNFα-stimulated p65 (Ser536) phosphorylation, Western blotting. To be noted: 0.1–10 µM. It is filed as cell-based. How it is done:
as §6, §7
(§8) Each figure/panel of Western blotting data represents one of at least three separate experiments. Western blots were scanned and imaged using Adobe Photoshop 5.0.2 software and polypeptide bands were semi-quantified by scanning densitometry using the Scion Image program. Data were normalised to fold expression/inhibition relative to ‘agonist plus vehicle’ treatment and expressed as mean ± s.e.m. IC50 values were established by curve fitting using the Hill equation. […]

The test system of series [4] is p105 (Ser932) phosphorylation in PC-3M cells. As to the kind of experiment: TNFα-stimulated p105 (Ser932) phosphorylation, Western blotting. It is filed as cell-based. The conditions noted are these: 0.1–10 µM. Here is the method:
as §6, §7, §8

The nature of series [5]: Mouse hepatocyte intrinsic clearance and half-life. The class given is in vitro ADME. The conditions noted are these: mouse CD1 hepatocytes; for half-life at 1 µM: cryopreserved pooled hepatocytes; for Mouse Hepatocyte Clearance: 1 µM. Here is the method: Intrinsic clearance and half-life were determined using cryopreserved pooled mouse CD1 hepatocytes. Test compounds were analysed at 1 µM in Williams Media E buffer (0.01% DMSO) at a cell density of 0.5 × 10^6 cells mL^–1. Cells were incubated at 37 °C for one hour with shaking, and compound depletion was measured by LC-MS/MS at six time points (0.25, 5, 10, 20, 40, and 60 min).

The next series is described as follows: In vivo murine PK. The conditions noted are these: mouse, plasma, CD1 mice, 10 mg/kg, mean; for half-life: read-out: Terminal t1/2 (converted). How it is done: Ta b l e S2. in vivo murine PK parameters for 6g [SU1349]. In vivo PK studies were performed by Shanghai ChemPartner Co. Ltd. (Shanghai, 201203 CN) Each route of administration involved three CD1 mice all receiving a single dose, with mean values reported. The IV/IP dosing solution was prepared in 10% DMAC+ 10% Solutol HS15+ 80% (15% of HP-β-CD) in water. BQL: Below quantiϐiable limit of 1 ng/mL for SU1349 in CD1 mouse plasma. All BQL data was excluded from mean value concentration and graphing. Plasma concentrations were determined on an LCMSMS-010 (API4000, triple quadruple) instrument using Positive Ion, ESI MS conditions, with deaxamethasone as an internal standard. Intravenous time points were taken at 5 min, 15 min, 30 min, 1, 2, 4, 8, and 24 hours and intraperitoneal time points were taken at 15 min, 30 min, 1, 2, 4, 6, 8, […]
Administration Dose Mean PK parameters
Clearance Terminal Vss Cmax Tmax F

Read-outs that look alike come from different tables or passages of the source.

In the case of `Nc1n[nH]c2ccc(-c3ccnc4[nH]c(-c5ccccc5)cc34)cc12` [Compound 4], the “number of kinases inhibited by >80%” value in the series with panel of 231 kinases amounted to 44 kinases. Also, the “% inhibition MLCK(h)” value in the series with MLCK(h) was found to be 0%.
With `Nc1n[nH]c2ccc(-c3ccnc4[nH]c(-c5cccc(OCc6ccccc6)c5)cc34)cc12` [Compound 5r [SU1261]], the IC50 (in general, the midpoint of a concentration-inhibition curve) in series [1] came to 570 nM. The “effect on TNFα-stimulated IκBα degradation” value in series [2] is “did not impact”. In series [3], the “effect on TNFα-stimulated p65 (Ser536) phosphorylation” value is given as “did not impact”. In addition, the “effect on TNFα-stimulated p105 (Ser932) phosphorylation” value in series [4] is “no significant concentration-dependent inhibition”. In series [5], the half-life at 1 µM came out at 36 min and the “Mouse Hepatocyte Clearance” value was found to be 38 μL/min/10^6 Cells. Moreover, in the series on panel of 231 kinases, the “number of kinases inhibited by >80%” value is recorded as 10 kinases. In addition, the “% inhibition MLCK(h)” value in the series with MLCK(h) was -10%.
In the case of `Nc1n[nH]c2ccc(-c3ccnc4[nH]c(-c5ccnc(OCc6ccccc6)c5)cc34)cc12` [Compound 6g [SU1349]], the IC50 in series [1] turned out to be 200 nM. Also, in series [2], the “effect on TNFα-stimulated IκBα degradation” value is listed as “no impact”. Moreover, the “impact on IKKβ-mediated canonical NF-κB signalling” value in series [2] (prostate cancer cell line (PC-3M), at 10 μM) is on record as “no detectable impact”. The “effect on TNFα-stimulated p65 (Ser536) phosphorylation” value in series [3] is “no impact”. The “effect on TNFα-stimulated p105 (Ser932) phosphorylation” value in series [4] is given as “no impact”. Also, in series [5], the half-life at 1 µM came out at 51 min and the “Mouse Hepatocyte Clearance” value is 27 μL/min/10^6 Cells. For the same compound, in “In vivo murine PK” (ip, I.P.), the Cmax (usually the peak of the concentration-time curve) was determined as 199 ng/mL; the Tmax (usually the time from dosing to the highest level) was found to be 26.4 min; the bioavailability (commonly dose-corrected exposure relative to a reference, in per cent) is 9.3%; the half-life was 181 min. Also, in “In vivo murine PK” (iv, I.V.), the clearance (in general, the rate of elimination divided by the concentration) came out at 16.7 mL/min/kg and the half-life was 251 min. Moreover, the Vd in the series “In vivo murine PK” (iv, I.V., read-out: Vss) is 0.39 L/kg.
